Key:
lef1 = lef1 morpholino injection into one-cell TOPdGFP transgenic zebrafish embryos, in situ hybridization and phenotype; type: in vivo
Protocol: (§1) In Situ Hybridizations: In situ hybridization was performed as described previously (Oxtoby and Jowett, 1993). The GFP probe was made by antisense transcription of TOPdGFP, using a T7 promoter present in the construct. The Probe for hdl was made from a full-length clone isolated in our laboratory, subcloned into pCS2+. Probes for pax2.1 (Krauss et al., 1991), tbx6 (Hug et al., 1997), and lef1 (Dorsky et al., 1999) were made as described previously. Images were taken with a Kodak DC290 digital camera and processed with Adobe Photoshop 5.0.
(§2) Morpholino Injections: Morpholino antisense oligonucleotides targeted to lef1 and hdl were obtained from Gene Tools (Corvallis, Oreg.). lef1 MO sequence: 5′- […]-3′ (SE ID NO:3); hdl MO sequence: 5′- […]-3(SEQ ID NO:4).
(§3) Approximately 1 ng of the morpholinos was injected into one-cell homozygous transgenic embryos that were fixed for in situ hybrid-ization at appropriate stages. Injections of control morpholinos produced no effect on TOPdGFP expression.

hdl = hdl morpholino injection into one-cell TOPdGFP transgenic zebrafish embryos, in situ hybridization and phenotype; type: in vivo
Protocol: as §1, §2, §3

For “lef1 morpholino: Morpholino antisense oligonucleotide targeted to zebrafish lef1, 5′- CTCCTCCACCTGACAACTGCGGCAT-3′ (SEQ ID NO:3), from Gene Tools (all phosphorodiamidate morpholino (PMO))”, the embryo phenotype (lef1; 36 hpf) was “tail truncations and loss of paraxial mesoderm, but normal head development”, the “TOPdGFP expression in the embryo” value (lef1; bud stage) was “striking decrease” and the “expression of spt and tbx6” value (lef1; bud stage) was “decreased expression”. For the same substance, the pax2 expression (lef1; bud stage) was “no effect”.
In the case of “hdl morpholino: Morpholino antisense oligonucleotide targeted to zebrafish hdl, 5′- CTCCGTTTAACTGAGGCATGTTGGC-3 (SEQ ID NO:4), from Gene Tools (all phosphorodiamidate morpholino (PMO))”, the “expression of midbrain marker pax2” value (hdl; bud stage) is reported as “anterior expansion”, the “expression of ventrolateral mesoderm markers spt and tbx6” value (hdl; bud stage) is reported as “no effect” and the “posterior GFP expression” value (hdl; bud stage) is reported as “no effect”. For the same substance, the embryo phenotype (hdl; injection at the one-cell stage, 36 hpf) was “phenotype indistinguishable from hdl mutant embryos” and the “anterior TOPdGFP expression” value (hdl; shield stage or bud stage) was “does not expand”.

Reference: US7314968B2, “Transgenic fish and β-catenin signaling pathway model” (University of Washington, priority 2002, dated 2008)
